Data on 2 molecules can be found in BindingDB's records for doi:10.1080/14756360400002007 (Crefsip, 2005).

For orientation: Ki means a measure of affinity in units of concentration, obtained from inhibition or displacement.

One assay concerns the target T1, Glutamate--tRNA ligase (Escherichia coli (strain K12), UniProt P04805).
T1 sequence (P04805 whole entry): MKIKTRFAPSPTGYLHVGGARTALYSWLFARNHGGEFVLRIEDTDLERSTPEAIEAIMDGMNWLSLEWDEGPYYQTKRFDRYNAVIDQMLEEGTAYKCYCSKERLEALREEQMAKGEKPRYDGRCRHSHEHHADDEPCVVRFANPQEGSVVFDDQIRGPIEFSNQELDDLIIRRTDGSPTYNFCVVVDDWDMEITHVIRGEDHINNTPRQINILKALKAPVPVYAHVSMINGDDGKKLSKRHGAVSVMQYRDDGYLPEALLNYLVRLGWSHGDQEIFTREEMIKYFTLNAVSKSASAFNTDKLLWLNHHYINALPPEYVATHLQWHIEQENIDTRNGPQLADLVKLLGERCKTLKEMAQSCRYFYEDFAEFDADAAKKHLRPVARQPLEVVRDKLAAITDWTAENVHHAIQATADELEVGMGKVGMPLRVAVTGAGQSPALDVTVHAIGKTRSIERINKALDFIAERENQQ
The assay can be described thus: Determination of the Inhibition Type and Constant (Ki). To be noted: pH 7.2; 37 °C. The procedure:
(§1) The Km and Kappm for the amino acid substrate were first calculated from Lineweaver-Burk plots. The Ki values were calculated from the Kappm vs [I] plot. The Ki values for the inhibitors with respect for the amino acid substrates were determined by measuring the apparent Km for the amino acid in the presence of saturating concentrations of both ATP and tRNA, and of various fixed concentrations of the inhibitor.

The target of assay [1] is T2, Probable glutamate--tRNA ligase, mitochondrial (Mus musculus, UniProt Q9CXJ1).
T2 sequence (Q9CXJ1 whole entry): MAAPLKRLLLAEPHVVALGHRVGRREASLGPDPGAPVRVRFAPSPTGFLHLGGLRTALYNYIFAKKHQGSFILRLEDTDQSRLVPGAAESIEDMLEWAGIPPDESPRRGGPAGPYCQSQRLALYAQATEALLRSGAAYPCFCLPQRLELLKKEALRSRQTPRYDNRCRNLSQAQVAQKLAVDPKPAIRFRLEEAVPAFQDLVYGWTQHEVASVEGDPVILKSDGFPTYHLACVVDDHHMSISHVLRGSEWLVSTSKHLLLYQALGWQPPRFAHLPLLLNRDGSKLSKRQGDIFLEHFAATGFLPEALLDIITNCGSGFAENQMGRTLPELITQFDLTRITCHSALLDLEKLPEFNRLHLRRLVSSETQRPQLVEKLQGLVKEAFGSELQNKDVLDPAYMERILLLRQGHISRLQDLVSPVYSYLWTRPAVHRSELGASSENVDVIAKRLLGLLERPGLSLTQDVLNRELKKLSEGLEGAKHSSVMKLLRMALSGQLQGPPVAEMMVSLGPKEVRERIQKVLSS
Described as above. The settings on record: pH 8; 30 °C. The procedure: as §1

For the molecule `Nc1ncnc2c1ncn2[C@@H]1O[C@H](COS(=O)(=O)NC(=O)[C@@H](N)CCC(=O)O)[C@@H](O)[C@H]1O` [5-O-[N-(L-Glutamyl)-sulfamoyl]adenosine 5], the Ki at Glutamate--tRNA ligase was 2.8 nM; in assay [1], 70 nM. For `Nc1ncnc2c1ncn2[C@@H]1O[C@H](COS(=O)(=O)NC(=O)[C@@H]2CCC(=O)N2)[C@@H](O)[C@H]1O` [(5S)-5-{[({[(2R,3S,4R,5R)-5-(6-amino-9H-purin-9-yl)-3,4-dihydroxyoxolan-2-yl]methoxy}sulfonyl)amino]carbonyl}pyrrolidin-2-one], the inhibitory constant (Ki) on Glutamate--tRNA ligase was found to be 15000 nM.
